Results taken from patent US20050079186A1, “Therapeutic vaccine peptide complex for preventing and treating disorders in mammals” (ORIDAN, Inc., priority 2001, published 2005).

Key:
[1] = system: cell-mediated immunity of the Th1 type; test: Intra Dermo Reaction (IDR) test; assay type: in vivo, dog; conditions: vaccinated dogs, 2 months after the infectious test; for IDR A16E: IDR done with peptide A16E; for IDR A16G: IDR done with peptide A16G; for IDR Leishmanines: read 48 h after intradermoinjection
Method: Evidence of the involvement of a cell-mediated immunity of the Th1 type:
Leishmanias of the promastigote forms are cultivated in the standard culture media. Parasites are harvested from the end of the exponential phase (6-7 days). The parasitic residue is washed three times by centrifugation (2500 g, […], 4° C.) in a PBS buffer.
After having verified the viability of the parasites using a vital stain (Trypan Blue), a suspension containing […] parasites per ml is inactivated in a PBS buffer containing 0.01% merthiolate (Pinelli et al., 1994, Infect. Immun., 62: 229-235). This constitutes the leishmanias for the intradermoreaction test (IDR).
Dogs are placed in lateral decubitus and a delicate and non-irritating shearing is done on the thoracic zone approximately 5 cm by 10 cm behind the elbow. Four circles 10 mm in diameter are marked using a felt-tip pen.
Into the center of the circles, 0.1 ml of solution is injected in an intradermo-injection. Two circles receive the solution of leishmanias and the 2 other circles receive the saline methiolated solution in the negative control. The reading of the Intra Dermo Reaction (IDR) is done 48 hours later using an allergologic gauge.
The test is considered positive if the mean of the two observed induration diameters is greater than or equal to 5 mm. The observation of an erythema without induration will be considered to be a negative test (Pinelli et al., 1994, Infect. Immun., 62: 229-235; Marty et al., 1994, Trans. Roy. Soc. Trop. Med. Hyg., 88, 658-659).
The IDRs can also be performed with a solution of peptides A16E and A16G or their derivatives and MDP, for example, in proportions of 10 μg of peptides for 20 μg of MDP.

[2] = system: Leishmania; test: Leishmaniasis serology: quantitative anti-Leishmania immunofluorescence; assay type: in vivo, dog; design: key: +: IF: Immunofluorescence (considered positive if the titer is ≧1/100); − = absence; conditions: healthy dogs vaccinated with peptide(s) 50 μg + muramyl dipeptide 100 μg; analyses 2 months and 12 months after the infectious test
Source text: In parallel to the study of the specific activation of the T lymphocytes the Th1 type by intradermoreaction, dosage of the NO (NO is synthesized by monocytes activated by the cytokines of the T cells of the Th1 type) and lymphocyte proliferation, a serological monitoring by traditional immunofluorescence using strips coated with the promastigotes (serological reference method for canine leishmaniasis) is done.
(§1) The biological analyses consist of: • biochemical analyses: urea, creatine, transaminases • hematological analyses: count, formula • serology leishmaniasis: quantitative anti-Leishmania immunofluorescence, dosage by the ELISA method of IgG2s specific to the peptides A16E and/or A16G • cellular response tests: IDR test (IntraDermoReaction) done with leishmanines and also with A16E and A16G peptides, dosage of NO and lymphoblastic proliferation.

[3] = system: IgG2 specific to the peptides A16E and/or A16G; test: ELISA detection of IgG2 specific to the peptides A16E and A16G; assay type: in vivo, dog; conditions: vaccinated dogs, ELISA towards the corresponding peptides; for SEROLOGY ELISA IgG2 (positive/negative): 2 months and 12 months after the infectious test; for SEROLOGY ELISA IgG2 (optical density): cut off 0.300 OD
Source text: Detection of immunoglobulins of the isotype IgG2 of dogs, specifically of the peptides A16E and A16G and their derivatives:
This detection is done by the ELISA method according to the microtitration technique of Kweider et al (J. Immunol. 1987, 138, 299) using a bonded anti IgG2. For this method, the peptides are biotinylated prior to coating on microplates.
as §1

[4] = system: peripheral blood mononuclear cells (PBMC); test: Lymphocyte (lymphoblastic) proliferation test; assay type: cell-based, dog; conditions: vaccinated dogs; 2 months after the infectious test
Method: Next, a test is done on the lymphocyte proliferation.
The peripheral blood mononuclear cells (PBMC) of dogs are separated on the Ficoll gradient (density 1.078) by centrifugation at 800 g for 20 mn at ambient temperature. These cells are brought under cultivation on a plate having 96 wells at a concentration of 2.10^5 cells per well in the presence of 2 μg per ml of Concanavalin A (Sigma), 5 μg per ml of ES P (excretion—secretion promastigotes) or […] of supernatants of culture harvested in the stationary phase of growth of promastigotes (SP) per well, and in the absence of any additive in a volume of […] of the medium RPMI 1640 containing 5% decomplemented fetal calf serum, 2 mM of L-glutamine, 100 U of penicillin per ml, […] of streptomycin per ml. The optimal antigen and mitogen concentrations have been determined in prior experiments. […] The cells are harvested over a filter and the incorporation of the radioactivity is determined by counting in a scintillating liquid (β-counter). […]
The lymphocytary proliferation has also been estimated by visual readings in a photon microscope (−: negative; +/−: slight proliferation; +: little proliferation less than 5 points per microscopic field; ++: mean proliferation greater than 5 points; +++: strong proliferation).

[5] = system: Leishmania; test: Parasitemy: direct exam of bone marrow smear and cultivation on NNN medium; assay type: in vivo, dog; design: key: − = absence; conditions: vaccinated dogs, 2 months and 12 months after the infectious test
Source text: A parasitological exam was done from the sample taken directly from the candidate studied, a dog, for example.
A smear of a puncture of the bone marrow is made on a slide. This smear, fixed once by methanol, is stained with May-Grünwald-Geimsa and observed by an immersion microscope (x 1000).
Samples of the bone marrow are brought under cultivation in the biphase cultivation medium NNN (Novy and Mac Neal, 1904, 4. Infec. Dis., 1:1-30), of which RPMI 1640 supplemented with 20% decomplemented fetal calf serum constitutes the liquid phase. The blind subculturings were done every four to six days. The cultures are regularly observed in a photon microscope (×400) for 20 min.
The parasitemy was quantified as follows:
The infectious examination consists in intravenously injecting 106 treated promastigotes in metacyclic phase in the complement of a healthy dog and 5.106 peritoneal macrophages of a healthy dog, infected in vitro by the amastigotes.
The promastigotes and infected macrophages are diluted in sterile physiological serum for a final volume of 1.5 ml. This mixture is made just prior to injection.
To these analyses must be added the search for Leishmania by direct observation in a microscope and cultivation on NNN medium from bone marrow after the infectious test.

Row | Substance | IDR A16E [1] | IDR A16G [1] | IDR Leishmanines [1] | SEROLOGY IF Quantitative [2] | SEROLOGY ELISA IgG2 (positive/negative) [3] | SEROLOGY ELISA IgG2 (optical density) [3] | Lymphoblastic Proliferation Test, reading in a photon microscope [4] | Cultivation on NNN Medium [5] | PARASITEMY Direct Exam [5]
1 | A-A-R-S-A-R-S-R-E-G-Y-S-L-T-D-E [A16E, 16 amino acid peptide specific to Leishmania] | + (The Intra Dermo Reaction test is considered positive (+) if the induration is ≧5 mm 48 h. after intradermoinjection) | Limit | + (The Intra Dermo Reaction test is considered positive (+) if the induration is ≧5 mm 48 h. after intradermoinjection) | − | + (ELISA: Cut off = 0.300 OD (optical density)) | 0.700 OD | + (little proliferation less than 5 points per microscopic field) | − | −
2 | A-A-S-S-T-P-S-P-G-S-G-C-E-V-D-G [A16G, 16 amino acid peptide specific to Leishmania] | Limit | + (The Intra Dermo Reaction test is considered positive (+) if the induration is ≧5 mm 48 h. after intradermoinjection) | + (The Intra Dermo Reaction test is considered positive (+) if the induration is ≧5 mm 48 h. after intradermoinjection) | − | + (ELISA: Cut off = 0.300 OD (optical density)) | 0.520 OD | ++ (mean proliferation greater than 5 points) | − | −
